Read-outs that look alike come from different tables or passages of the source.
Key:
SMN2 mRNA = test: RT-qPCR splicing assay, SMN2 mRNA; assay type: cell-based, human; settings: Homo sapiens, canonical junction qPCR panel, Table 4; read-out: SMN2 IC50 (decrease in CJ mRNA levels)
Procedure, shortened: (§1)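 A673 or K562 cells treated 24 h at 37 °C with an 11-point 3-fold dilution series (top 10 uM, DMSO ≤0.25%). Lysates went directly to one-step RT-qPCR quantifying canonical (CJ) and alternative-exon (AJ) junctions, normalized to GAPDH, GUSB or PPIA. Values from ΔΔCt versus DMSO, RQ = 2^(−ΔΔCt), expressed as percentage response.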

Target C = test: RT-qPCR canonical junction panel assay, Target C mRNA; assay type: cell-based; settings: Table 4, read-out: Target C IC50 (decrease in CJ mRNA levels)
Procedure, shortened: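 A673 or K562 cells treated with compound; CJ mRNA quantified by junction-spanning RT-qPCR probe after cDNA synthesis, normalised to GAPDH, GUSB or PPIA and DMSO (2^−ΔΔCt), scaled to set ΔCt assay window; IC50 from 4-parameter fit of CJ decrease.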

HTT mRNA = test: RT-qPCR splicing assay, HTT mRNA canonical (CJ) and alternative (AJ) junction; assay type: cell-based, human; settings: Homo sapiens; for AC50: HTT alternative junction mRNA, read-out: HTT AJ (increase in AJ mRNA, AC50)
Procedure, shortened: as §1

K562 cells = test: Cell Titer Glo 2.0 cell viability (toxicity) assay, K562; settings: 500 cells/well, 72 hours
MYB mRNA = test: RT-qPCR splicing assay, MYB mRNA canonical (CJ) and alternative (AJ) junction; assay type: cell-based, human; settings: Homo sapiens; for AC50: MYB alternative junction mRNA, read-out: MYB AJ (increase in AJ mRNA, AC50)
Procedure, shortened: as §1

[1] = HTT canonical junction mRNA, RT-qPCR, read-out: HTT CJ (decrease in CJ mRNA levels, IC50)
[2] = canonical junction qPCR panel, Table 4, read-out: HTT IC50 (decrease in CJ mRNA levels)
[3] = MYB canonical junction mRNA, RT-qPCR, read-out: MYB CJ (decrease in CJ mRNA levels, IC50)
[4] = canonical junction qPCR panel, Table 4, read-out: MYB IC50 (decrease in CJ mRNA levels)

Row | Structure (SMILES) | IC50 (SMN2 mRNA) [µM] | IC50 (Target C) [µM] | AC50 (HTT mRNA; RT-qPCR) [µM] | IC50 (HTT mRNA; [1]) [µM] | IC50 (HTT mRNA; [2]) [µM] | Effect of Exemplary Compounds on Cell Viability, K562 (K562 cells) | AC50 (MYB mRNA; RT-qPCR) [µM] | IC50 (MYB mRNA; [3]) [µM] | IC50 (MYB mRNA; [4]) [µM]
1 | Cc1nc2cc(O)c(-c3ccc4nc(N5CCN[C@H](C6CC6)C5)ccc4n3)cc2o1 [Compound 421] | 0.1 to 1 | 0.1 to 1 | 0.1 to 1 | 0.1 to 1 | 0.1 to 1 | B (B represents 100-1000 nM) | 0.1 to 1 | 0.1 to 1 | 0.1 to 1
2 | Cc1nc2cc(O)c(-c3ccc4nc(N5CCN[C@@H](C(C)C)C5)ccc4n3)cc2o1 [Compound 422] | < 0.1 | 1 to 10 | 0.1 to 1 | 0.1 to 1 | 0.1 to 1 | B (B represents 100-1000 nM) | 0.1 to 1 | 0.1 to 1 | 0.1 to 1
3 | Cc1nc2cc(O)c(-c3ccc4nc(N5CCC(N)CC5)ccc4n3)cc2o1 [Compound 424] | < 0.1 | 1 to 10 | 1 to 10 | 1 to 10 | 1 to 10 | B (B represents 100-1000 nM) | 1 to 10 | 1 to 10 | 1 to 10
4 | CNC1CCN(c2ccc3nc(-c4cc5oc(C)nc5cc4O)ccc3n2)CC1 [Compound 425] | 0.1 to 1 | > 10 | 1 to 10 | 1 to 10 | 1 to 10 | B (B represents 100-1000 nM) | 1 to 10 | 1 to 10 | 1 to 10
5 | Cc1nc2c(C)c(O)c(-c3ccc4nc(N5CC[C@H](NC6CC6)C5)ncc4n3)cc2o1 [Compound 433, 6-{2-[(3S)-3-(cyclopropylamino)pyrrolidin-1-yl]pyrido[3,2-d]pyrimidin-6-yl}-2,4-dimethyl-1,3-benzoxazol-5-ol] | < 0.1 | 0.1 to 1 | < 0.1 | < 0.1 | < 0.1 | B (B represents 100-1000 nM) | 0.1 to 1 | 0.1 to 1 | 0.1 to 1
6 | Cc1nc2cc(O)c(-c3ccc4nc(N5CC[C@H](NC6CC6)C5)ncc4n3)cc2o1 [Compound 435, 6-{2-[(3S)-3-(cyclopropylamino)pyrrolidin-1-yl]pyrido[3,2-d]pyrimidin-6-yl}-2-methyl-1,3-benzoxazol-5-ol] | < 0.1 | 0.1 to 1 | 0.1 to 1 | 0.1 to 1 | 0.1 to 1 | B (B represents 100-1000 nM) | 0.1 to 1 | 0.1 to 1 | 0.1 to 1
7 | Cc1nc2c(C)c(O)c(-c3ccc4nc(N5CC[C@@H](NC(C)(C)C)C5)ncc4n3)cc2o1 [Compound 436] | < 0.1 | < 0.1 | < 0.1 | < 0.1 | < 0.1 | A (A represents <100 nM) | < 0.1 | < 0.1 | < 0.1
8 | Cc1nc2c(C)c(O)c(-c3ccc4nc(N5CC[C@H](NC(C)(C)C)C5)ncc4n3)cc2o1 [Compound 437] | 0.1 to 1 | 0.1 to 1 | < 0.1 | < 0.1 | < 0.1 | B (B represents 100-1000 nM) | 0.1 to 1 | 0.1 to 1 | 0.1 to 1
9 | Cc1c(O)c(-c2ccc3nc(N4CC[C@@H](NC5CC5)C4)ncc3n2)cc2cn(C)nc12 [Compound 438, 5-{2-[(3R)-3-(cyclopropylamino)pyrrolidin-1-yl]pyrido[3,2-d]pyrimidin-6-yl}-2,7-dimethylindazol-6-ol] | < 0.1 | 0.1 to 1 | < 0.1 | < 0.1 | < 0.1 | B (B represents 100-1000 nM) | < 0.1 | 0.1 to 1 | 0.1 to 1
